# Experimental data: patent US20250213598A1, “COMPOUNDS AS ELASTASE INHIBITOR AND SOLID FORM THEREOF” (priority 2023, published 2025)
# How the values were obtained:
# Assay type in all cases: physicochemical
# [1] = Solid-state stability, 2-week study (HPLC, XRPD)
# Description: The solubility and stability are analyzed using an Agilent 1260 infinityII Binary Pump. • 4.
# [2] = Photostability of crystal form A and amorphous form
# Description: A certain amount of crystal form A and amorphous form of the compound shown in Formula (I) were respectively taken, and the stabilities of crystal form A and amorphous form were evaluated under light conditions.
# [3] = Dynamic solubility in citrate buffer solutions at room temperature; conditions: for pH: supernatant
# Description: During the test, about 200 mg of crystal form A or the amorphous form was added into 5 mL of buffered salt medium (approximately 40 mg/mL), and stirred magnetically at room temperature (approximately 25° C.). 1 mL of the suspension (or clear solution) taken at each of 2, 8, and 30 hours were centrifugated. The obtained solid is for crystal form detection (XRPD), and the supernatant/clear liquid after filtration is for solubility testing (HPLC) and pH testing.
# [4] = After 11 days, 25° C., illumination 5000 lux/h, near-ultraviolet 90 μW/cm^2
structure (smiles),measurement,setting,value
C#Cc1c(F)ccc2cc(O)cc(-c3ncc4c(N5CC6CCC(C5)N6)nc(OC[C@@]56CCCN5C[C@H](F)C6)nc4c3F)c12 [Amorphous],Content (%),"[1]; 25° C./60 % RH, 1 week",88.54%
same,Crystal form,"[1]; 25° C./60 % RH, 1 week",Amorphous
same,Purity (area %),"[1]; 25° C./60 % RH, 1 week",97.58 area %
same,Relative to initial (%),"[1]; 25° C./60 % RH, 1 week",99.0%
same,Content (%),"[1]; 25° C./60 % RH, 2 weeks",86.62%
same,Crystal form,"[1]; 25° C./60 % RH, 2 weeks",Amorphous
same,Purity (area %),"[1]; 25° C./60 % RH, 2 weeks",96.98 area %
same,Relative to initial (%),"[1]; 25° C./60 % RH, 2 weeks",98.4%
same,crystal form changes in the two-week stability assessment,"[1]; 25° C./60% RH, 40° C./75% RH, 60° C., two weeks",neither the amorphous form nor crystal form A underwent crystal form changes
same,Content (%),"[1]; 40° C./75 % RH, 1 week",87.54%
same,Crystal form,"[1]; 40° C./75 % RH, 1 week",Amorphous
same,Purity (area %),"[1]; 40° C./75 % RH, 1 week",97.87 area %
same,Relative to initial (%),"[1]; 40° C./75 % RH, 1 week",99.3%
same,Content (%),"[1]; 40° C./75 % RH, 2 weeks",86.77%
same,Crystal form,"[1]; 40° C./75 % RH, 2 weeks",Amorphous
same,Purity (area %),"[1]; 40° C./75 % RH, 2 weeks",96.87 area %
same,Relative to initial (%),"[1]; 40° C./75 % RH, 2 weeks",98.3%
same,Content (%),"[1]; 60° C., 1 week",90.96%
same,Crystal form,"[1]; 60° C., 1 week",Amorphous
same,Purity (area %),"[1]; 60° C., 1 week",96.97 area %
same,Relative to initial (%),"[1]; 60° C., 1 week",98.4%
same,Content (%),"[1]; 60° C., 2 weeks",88.93%
same,Crystal form,"[1]; 60° C., 2 weeks",Amorphous
same,Purity (area %),"[1]; 60° C., 2 weeks",96.14 area %
same,Relative to initial (%),"[1]; 60° C., 2 weeks",97.5%
same,Content (%),[1]; initial,90.28%
same,Crystal form,[1]; initial,Amorphous
same,Purity (area %),[1]; initial,98.56 area %
same,Content (%),[2]; [4],82.68%
same,Crystal form,[2]; [4],Amorphous
same,Purity (area %),[2]; [4],93.42 area %
same,Relative to initial (%),[2]; [4],94.8%
same,Initial Sample Content (%),[2]; initial sample,90.28%
same,Initial Sample Purity (area %),[2]; initial sample,98.56 area %
same,crystal form changes in the photostability test,[2]; light conditions,neither the amorphous form nor crystal form A underwent crystal form changes
same,Solubility,"[3]; Citrate buffer pH = 3.5, room temperature, 2 hours",>37.77 mg/mL
same,Solubility,"[3]; Citrate buffer pH = 3.5, room temperature, 8 hours",>38.95 mg/mL
same,Solubility,"[3]; Citrate buffer pH = 3.5, room temperature, 30 hours",>37.45 mg/mL
same,Solubility,"[3]; Citrate buffer pH = 4.5, room temperature, 2 hours",>33.47 mg/mL
same,Solubility,"[3]; Citrate buffer pH = 4.5, room temperature, 8 hours",>35.71 mg/mL
same,Solubility,"[3]; Citrate buffer pH = 4.5, room temperature, 30 hours",>37.52 mg/mL
same,solubility in the citrate buffer systems (in words),[3]; citrate buffer pH=3.5 and pH=4.5,excellent solubility
same,pH,"[3]; citrate buffer pH = 3.5, 2 hours",3.63
same,pH,"[3]; citrate buffer pH = 3.5, 8 hours",3.59
same,pH,"[3]; citrate buffer pH = 3.5, 30 hours",3.56
same,pH,"[3]; citrate buffer pH = 4.5, 2 hours",4.46
same,pH,"[3]; citrate buffer pH = 4.5, 8 hours",4.44
same,pH,"[3]; citrate buffer pH = 4.5, 30 hours",4.40
